From publication PMC4550849 (Scientific Reports, 2015)

Experiments:
Poliovirus: WM3 = assay: microbe, parasite or virus in culture; format: cell-based, Poliovirus 3; conditions: Enterovirus C, LLC-MK2
in vitro [1] = conditions: African green monkey
[2] = tested on: Venezuelan equine encephalitis virus (VEEV, Strain TC-83); assay: microbe, parasite or virus in culture; format: cell-based
Ebola virus (Kikwit) = assay: microbe, parasite or virus in culture; format: cell-based; conditions: Zaire ebolavirus, HeLa
[3] = target: purified human cathepsin B (Homo sapiens, UniProt P07858); format: biochemical; conditions: 4, 8, 16, 33, or 66 μM; without pre-incubation; pH 5.8
[4] = tested on: RAW264.7 cells treated with Clostridium difficile toxin B; assay: cells; format: cell-based; conditions: Mus musculus, RAW264.7, 6 h
Rabies (Strain Flury) = assay: microbe, parasite or virus in culture; format: cell-based; conditions: Lyssavirus rabies, BHK-21, 120 h
in vitro [5] = conditions: human
Junin (JUNV) = assay: microbe, parasite or virus in culture; format: cell-based, Junin virus; conditions: Mammarenavirus juninense
Ebola = conditions: in vivo; cited from earlier work
Chikungunya (CHIV) = assay: microbe, parasite or virus in culture; format: cell-based
[6] = tested on: Respiratory syncytial virus (RSV): Strain A-2; assay: microbe, parasite or virus in culture; format: cell-based; conditions: human respiratory syncytial virus, HEp-2
Ebola virus = conditions: cited from earlier work
SARS CoV Strain Urbani = assay: microbe, parasite or virus in culture; format: cell-based, SARS coronavirus; conditions: Severe acute respiratory syndrome coronavirus, Vero 76
[7] = tested on: Plasmodium falciparum phosphoethanolamine methyltransferase; conditions: cited from earlier work
[8] = tested on: RAW264.7 cells treated with PA + FP59; format: cell-based, mouse
in vitro [9] = conditions: hamster
[10] = tested on: RAW264.7 cells treated with anthrax lethal toxin (PA + LF)
[11] = tested on: PA83 binding to RAW264.7 cells; format: cell-based, mouse
in vitro [12] = conditions: rhesus monkey
[13] = tested on: acidic vesicles in RAW264.7 cells; format: cell-based, mouse; conditions: AQ 1 h, 500 ng/ml PA 1 h
LF = LF (Bacillus anthracis, UniProt P15917); format: biochemical
Chain of LF (P15917 34-809 limits assumed): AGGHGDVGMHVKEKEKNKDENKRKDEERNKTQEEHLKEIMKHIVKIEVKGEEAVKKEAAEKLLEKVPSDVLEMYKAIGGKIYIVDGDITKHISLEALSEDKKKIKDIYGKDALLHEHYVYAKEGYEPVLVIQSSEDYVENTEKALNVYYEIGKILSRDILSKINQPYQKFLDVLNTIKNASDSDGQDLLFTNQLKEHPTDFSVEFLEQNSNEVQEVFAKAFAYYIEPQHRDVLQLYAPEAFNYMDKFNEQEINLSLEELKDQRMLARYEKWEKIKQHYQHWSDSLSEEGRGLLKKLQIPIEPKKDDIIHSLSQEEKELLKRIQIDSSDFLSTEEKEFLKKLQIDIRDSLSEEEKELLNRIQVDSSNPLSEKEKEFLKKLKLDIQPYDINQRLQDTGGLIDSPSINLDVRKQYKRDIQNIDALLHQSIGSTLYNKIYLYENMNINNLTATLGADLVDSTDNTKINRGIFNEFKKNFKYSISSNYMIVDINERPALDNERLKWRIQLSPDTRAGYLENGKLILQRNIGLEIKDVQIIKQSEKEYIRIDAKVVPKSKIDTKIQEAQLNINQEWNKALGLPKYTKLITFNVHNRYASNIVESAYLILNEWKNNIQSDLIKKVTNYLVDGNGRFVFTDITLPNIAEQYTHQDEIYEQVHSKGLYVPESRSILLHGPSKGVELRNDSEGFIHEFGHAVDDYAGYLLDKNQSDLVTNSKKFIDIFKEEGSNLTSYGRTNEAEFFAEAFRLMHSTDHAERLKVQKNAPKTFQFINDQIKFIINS

[14] = tested on: RAW264.7 cells treated with Cholera toxin; assay: cells; format: cell-based; conditions: Mus musculus, RAW264.7, 6 h
[15] = tested on: C32 cells treated with diphtheria toxin; format: cell-based, human
HeLa cells = conditions: human
[16] = tested on: anthrax toxin (LF + PA) lethality; design: species or system Sprague-Dawley rats; conditions: rat, in vivo
cathepsin B = cathepsin B (Homo sapiens, UniProt P07858); format: binding
Ebola virus (EBOV) = assay: microbe, parasite or virus in culture; format: cell-based; conditions: Zaire ebolavirus, HFF-1, 48 h
MEK-2 = format: cell-based, mouse
[17] = tested on: Herpes Simplex Virus 1 (HSV-1, Strain E-377); assay: microbe, parasite or virus in culture; format: cell-based; conditions: Human alphaherpesvirus 1, HFF, 72 h
[18] = tested on: Human Cytomegalovirus (CMV, Strain AD169); assay: microbe, parasite or virus in culture; format: cell-based; conditions: Human betaherpesvirus 5, AD169, HFF, 336 h
caspase-1 = format: cell-based, mouse
[19] = tested on: RAW264.7 cells treated with Pseudomonas aeruginosa Exotoxin A; assay: cells; format: cell-based; conditions: Mus musculus, RAW264.7, 6 h
endosomal acidification = conditions: cited from earlier work
in vitro [20] = conditions: human; remark: listed apart in the source
[21] = human, in vivo, cited from earlier work
[22] = tested on: RAW264.7 cells treated with anthrax lethal toxin (PA + LF); assay: cells; conditions: Mus musculus, RAW264.7, read-out: EC50, reduction of anthrax toxin-mediated cytotoxicity
[23] = tested on: host lysosomal cathepsin B; conditions: cited from earlier work

Compound CCN(CC)Cc1cc(Nc2ccnc3cc(Cl)ccc23)ccc1O [AQ, Amodiaquine] has an EC50 (Poliovirus: WM3) of over 100 µM, a CC50 (in vitro [1]) of 32 µM and an EC50 [2] of 3.2 µM. The EC50 (Ebola virus (Kikwit)) was 2.4 µM, the EC50 (Ebola virus (Kikwit); 24 h) was 2 µM and the EC50 (Ebola virus (Kikwit); 48 h) was 4 µM. The “inhibition of purified human cathepsin B activity” value [3] was “directly inhibit cathepsin B activity in a dose dependent manner”, the EC50 [4] was 4.6 µM and the EC50 (Rabies (Strain Flury)) was 5.7 µM. For the same compound, the CC50 (in vitro [5]; CC50) was 50 µM, the EC50 (Junin (JUNV)) was 16.9 µM and the “reduction of Ebola mortality risk” value (Ebola) was 31%. The EC50 (Chikungunya (CHIV)) was 18.4 µM, the EC50 [6] was 32 µM and the “Ebola virus pathogenicity in cells” value (Ebola virus) was “inhibit Ebola virus pathogenicity in cells”. The EC50 (SARS CoV Strain Urbani) was 2.4 µM, the “inhibition of Plasmodium falciparum phosphoethanolamine methyltransferase” value [7] was “inhibits” and the “sensitivity of cells to PA + FP59” value [8] was “less sensitive”. For the same compound, the CC50 (in vitro [9]) was over 10 µM, the “protection of host cells against anthrax toxin killing (cell viability, MTT)” value (“protection of host cells” for short) [10] was “completely protect” and the “sensitivity of host cells to PA83 + LF and PA63 + LF” value [10] was “equally reduces sensitivity”. For the same compound, the “binding of PA83 to cells” value [11] was “did not block”, the “proteolytic processing of PA to generate PA63” value [11] was “did not block” and the CC50 (in vitro [12]) was over 100 µM. For the same compound, the “cell-associated Lysosensor fluorescence (acidic organelles)” value [13] was “markedly decreased”, the “proteolytic activity of LF on MAPKK peptide (emission at 523 nm)” value (LF) was “does not block” and the EC50 [14] was over 66.7 µM. For the same compound, the “inhibition of diphtheria toxin cell killing (multiplex hit)” value [15] was “inhibited”, the CC50 (HeLa cells) was over 50 µM and the “rats saved after lethal anthrax toxin challenge” value [16] was 40%. The “survival after lethal anthrax toxin challenge” value [16] was “all survived”, the “binding to cathepsin B (STD difference spectrum)” value (cathepsin B; 2 mM AQ, 20 μM cathepsin B (100:1)) was “binding to the enzyme” and the “STD effect, atom H4” value (cathepsin B; relative to H4 atom (100%)) was 100%. For the same compound, the “STD effect, atom H5” value (cathepsin B; relative to H4 atom (100%)) was 97%, the EC50 (Ebola virus (EBOV)) was 2.6 µM and the “LF-PA-mediated cleavage of MEK2” value (MEK-2) was “completely prevented”. The EC50 [17] was over 60 µM, the EC50 [18] was over 60 µM and the “active caspase-1 after LF-PA treatment (FLICA)” value (caspase-1) was “not detected”. It also gave an EC50 [19] of over 66.7 µM.

In the case of CCN(CC)CCCC(C)Nc1ccnc2cc(Cl)ccc12 (centres unmarked) [CQ, Chloroquine], the endosomal acidification (endosomal acidification) is listed as “prevent endosomal acidification”, the EC50 (Ebola virus (Kikwit); 48 h) is listed as 4.8 µM and the “inhibition of purified human cathepsin B activity” value [3] is listed as “weaker inhibitors”. The CC50 (in vitro [5]; CC50) was 100 µM, the CC50 (in vitro [20]) was 70 µM and the “Ebola virus pathogenicity in cells” value (Ebola virus) was “inhibit Ebola virus pathogenicity in cells”. For the same compound, the “inhibition of diphtheria toxin cell killing (multiplex hit)” value [15] was “inhibited” and the EC50 (Ebola virus (EBOV)) was 2.5 µM.

For C=C[C@H]1C[N@@]2CC[C@H]1C[C@@H]2[C@@H](O)c1ccnc2ccccc12 [Cinchonine], the “protection of host cells” value [10] was “none”.

In the case of CCNCc1cc(Nc2ccnc3cc(Cl)ccc23)ccc1O [DEAQ, Desethyl-Amodiaquine], the terminal half-life ([21]; po) is given as 220 to 432 h, the “Cmax (maximal amounts of drug in the blood after oral administration)” value [21] is given as “low μM range” and the EC50 (Ebola virus (Kikwit); 24 h) is given as 2 µM. For the same compound, the EC50 (Ebola virus (Kikwit); 48 h) was 4 µM, the “inhibition of purified human cathepsin B activity” value [3] was “directly inhibit cathepsin B activity in a dose dependent manner” and the EC50 [22] was 5 µM. It also gave a CC50 (in vitro [5]; CC50) of 50 µM, a CC50 (in vitro [5]; CC50, 24 h) of over 50 µM and a CC50 (in vitro [5]; CC50, 48 h) of over 50 µM. It also gave an EC50 (Junin (JUNV)) of 13.8 µM, an EC50 (Chikungunya (CHIV)) of 17.3 µM and an EC50 (Ebola virus (EBOV)) of 2.1 µM.

In the case of CCNCCCC(C)Nc1ccnc2cc(Cl)ccc12 (centres unmarked) [DECQ, Desethyl-Chloroquine], the EC50 (Ebola virus (Kikwit); 48 h) is reported as 7.3 µM, the “inhibition of purified human cathepsin B activity” value [3] is reported as “weaker inhibitors” and the CC50 (in vitro [5]; CC50) is reported as 100 µM. The CC50 (in vitro [20]) was 70 µM and the EC50 (Ebola virus (EBOV)) was 3.2 µM.

With COc1cc(NC(C)CCCN)c2ncccc2c1 (centres unmarked) [Primaquine] the “protection of host cells” value [10] was “none”.

In the case of C=C[C@H]1C[N@@]2CC[C@H]1C[C@@H]2[C@@H](O)c1ccnc2ccc(OC)cc12 [Quinidine], the “protection of host cells” value [10] is reported as “none”.

In the case of CA-074, the “accumulation of PA pores in late endosomes” value [23] is listed as “elevated accumulation”, the “cellular sensitivity to LF-PA” value [23] is listed as “reduction of cellular sensitivity” and the “release of LF from the late endosomes into the cytoplasm” value [23] is listed as “inability of LF to be released”.
